These results are taken from US20080234232A1, “Methods and compositions for targeting AFAP” (priority 2007, published 2008).

Experiment [1] concerns AFAP-110 colocalization with cSrc and cSrc activation. In words: Immunofluorescence: PMA-induced colocalization of AFAP-110 with cSrc and cSrc activation in mouse embryo fibroblasts. The experiment is classed as cell-based. How it is done:
FIG. 1: LY294002 blocks PMA-induced colocalization between AFAP-110 and cSrc, and subsequent cSrc activation. A) SYF cells transiently co-expressing GFP-AFAP-110 and cSrc were untreated (panels a-d), treated with 100 nM PMA for 15 minutes (panels e-h), or treated with PMA and either 6 μM bisindolylmaleimide (panels i-I), 10 μM LY294002 (panels m-p) or 50 nM Wortmannin (panels q-t). Fixed cells were immunolabeled with avian specific cSrc antibody, EC10 (1:500), and phospho-Src-family (Tyr416) (1:250) as described in the methods section. Secondary antibodies used were Atexa 546 anti-mouse for EC10 and Alexa 647 anti-rabbit for phospho-Src-family (Tyr416). A merged image was generated to determine colocalization between AFAP-110 and cSrc. Bars represent 20 μM.
D) Knockout MEFs (p85−/−) were transfected with GFP-AFAP-110 and cSrc. Fixed cells were immunolabeled with EC10 (1:500) and phospho-Src-family (Tyr416) (1:250) as described in the methods section. Secondary antibodies used were Alexa 546 anti-mouse for EC10 and Alexa 647 anti-rabbit for phospho-Src-family (Tyr416). Cells treated with 100 riM PMA for 15 minutes (panels e-h). Images were merged to determine colocalization of cSrc and GFP-AFAP-110. Bars represent 20 μm. Mouse embryo fibroblast cells that express the p85α isoform of the PI3K regulatory subunit (p85α+/+) were transfected with GFP-AFAP-110 and cSrc. Fixed cells were immunolabeled with EC10 (1:500) and phospho-Src-family (Tyr416) (1:250) as described in the methods section. Secondary antibodies used were Alexa 546 anti-mouse for EC10 and Alexa 647 anti-rabbit for phospho-Src-family (Tyr416). Images were merged to determine colocalization of cSrc and GFP-AFAP-110. Bars represent 20 μm.
SYF, SYF/cSrc, p85α+/+ and p85−/− cells were cultured in standard culture media. Transient transfections of SYF, SYF/cSrc, p85α+/+ cells for immunofluorescence were carried out using LipofectAMINE™ Reagent (Invitrogen) as per manufacturer's protocol. Briefly, Approximately 5.0-8.0×10^4 cells per well were transfected at 50-70% confluent on coverstips with 2-4 μg of plasmid DNA and incubated for 3-4 hours. Thirty-six hours after transfection, cells were serum starved for 12 hours, treated, and subsequently fixed and permeablized as previously described (Qian, Y. et. al., 1998). Cells were treated with a PKC activator, 100 nM PMA for 5 or 15 minutes or in combination with the following pretreatments; a PKC inhibitor, 6 μM bisindolylmaleimide [I] for six hours; or PI3K inhibitor, 10 μM LY294002 for six hours; 50 nM Wortmannin for 30 minutes; and/or a Src family inhibitor, 5 μM PP1 for six hours. For actin labeling, a 1:500 dilution of TRITC-phalloidin was used as labeled in the figures. Primary antibody concentrations used were diluted in 5% Bovine Serum Albumin (BSA) dissolved in 1× phosphate-buffered saline (PBS): EC10 mAb-1:500; Phospho-Src Family (Y416) pAb-1:250; Anti-PI-3,4,5-P3 mAb-1:100; Anti-AFAP-110 (F1)pAb-1:1000; Anti-cSrc pAb-1:500; Anti-flag-1:1000. All fluorescent secondary and phalloidin antibodies were diluted 1:200 in 5% BSA, and are labeled according to figure legends. Cells were washed and mounted on slides with Fluoromount-G (Fisher). A Zeiss LSM 510 confocal microscope was used to scan images of about 1 μM in thickness. To prevent cross-contamination between the different fluorochromes, each channel was imaged sequentially using the multitrack recording module before merging the images. For all figures, representative cells are shown (>100 cells examined per image shown).
We utilized SYF cell lines as a model system, mouse embryo fibroblasts engineered to contain null mutations in the c-src,fyn, and c-yes genes (Klinghoffer, R. A. et. al., 1999). The cells were transiently co-transfected with constructs that encode cSrc and GFP-tagged AFAP-110, as previously described (Gatesman, A. et. al., 2004). […]

The target in a further experiment is T1, PI3K (Mus musculus, UniProt P42337).
T1 construct: a PI3K kinase activity assay performed using anti-p1100α immunoprecipitates; endogenous in cells; host or cells: SYF/cSrc mouse embryo fibroblasts (lysate, anti-p110α immunoprecipitate)
The experiment can be described thus: In vitro PI3K kinase assay on anti-p110α immunoprecipitates of treated SYF/cSrc cells. The class given is cell-based. As to conditions: SYF/cSrc cells serum-starved, 100 nM PMA for 5 or 15 minutes. How it is done:
FIG. 3: PMA treatment results in an increase in PI3K activation, in vitro. SYF/cSrc cells were cultured under serum-free conditions for 24 hours. Cells were unstimulated or stimulated with 10% serum (positive control), 100 nM PMA for 5 or 15 minutes. Cells were then lysed in kinase assay buffer and a PI3K kinase activity assay performed using anti-p1100α immunoprecipitates to measure PMA-induced incorporation of [^32p] into phosphoinositide substrates.
PI3K activity was determined using the In vitro PI3K kinase assay as previously described (Jiang, B. H. et. al., 1998). Cells were serum-starved 24 hours. The media was changed and cells were then treated with either 10% fetal calf serum or 100 nM PMA for 5 or 15 minutes alone or in conjunction with 6 μM bisindolylmaleimide [i] or 10 μM LY294002 for six hours as a negative control. Upon completion of the incubation, the cells were lysed in cold kinase lysis buffer [150 mM NaCl, 100 mM Tris pH 8.0, 1% Triton X-100, 5 mM EDTA, 10 mM NaF, plus inhibitors (1 mg/ml leuptin, 1 mg/ml peptatin, 0.5 M sodium vanadate, 1 mg/ml aprotinin, and 1M DTT)]. Five hundred micrograms (500 μg) of protein was incubated with p110α antibody overnight at 4° C. Forty microliters (40 μl) of protein A/G PLUS agarose beads (50% slurry) was added and incubated for an additional two hours. […]

[2] abbreviates: p85−/− cells, 100 nM PMA 15 min.

T1 sequence (P42337 whole entry): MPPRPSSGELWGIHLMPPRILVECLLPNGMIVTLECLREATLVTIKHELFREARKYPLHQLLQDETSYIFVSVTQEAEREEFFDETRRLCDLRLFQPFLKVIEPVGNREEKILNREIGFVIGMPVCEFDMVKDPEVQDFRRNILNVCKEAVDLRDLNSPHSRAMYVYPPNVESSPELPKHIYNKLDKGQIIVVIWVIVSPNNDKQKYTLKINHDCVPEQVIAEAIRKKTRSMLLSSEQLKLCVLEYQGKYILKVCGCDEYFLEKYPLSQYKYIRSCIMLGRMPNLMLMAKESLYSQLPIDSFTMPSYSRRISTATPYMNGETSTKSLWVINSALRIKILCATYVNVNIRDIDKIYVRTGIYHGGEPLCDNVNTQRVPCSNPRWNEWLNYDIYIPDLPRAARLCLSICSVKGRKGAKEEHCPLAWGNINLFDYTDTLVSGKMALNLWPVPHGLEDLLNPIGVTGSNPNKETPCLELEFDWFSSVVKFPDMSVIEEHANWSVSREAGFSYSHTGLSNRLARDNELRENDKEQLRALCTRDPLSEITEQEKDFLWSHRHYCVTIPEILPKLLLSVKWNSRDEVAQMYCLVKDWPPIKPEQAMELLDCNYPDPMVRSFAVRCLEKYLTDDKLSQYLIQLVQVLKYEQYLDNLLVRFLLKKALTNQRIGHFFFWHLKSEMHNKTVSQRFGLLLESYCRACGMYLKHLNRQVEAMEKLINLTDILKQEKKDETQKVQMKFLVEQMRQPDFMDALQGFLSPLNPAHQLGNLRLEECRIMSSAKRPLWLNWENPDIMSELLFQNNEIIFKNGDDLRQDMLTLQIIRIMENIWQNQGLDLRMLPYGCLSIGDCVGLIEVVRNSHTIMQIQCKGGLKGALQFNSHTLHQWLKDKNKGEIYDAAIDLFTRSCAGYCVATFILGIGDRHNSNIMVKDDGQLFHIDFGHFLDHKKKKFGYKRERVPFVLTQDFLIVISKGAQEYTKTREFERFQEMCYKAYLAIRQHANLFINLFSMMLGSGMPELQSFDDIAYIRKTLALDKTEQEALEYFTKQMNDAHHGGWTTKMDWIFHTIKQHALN
T1 sequence (P26450 whole entry partner): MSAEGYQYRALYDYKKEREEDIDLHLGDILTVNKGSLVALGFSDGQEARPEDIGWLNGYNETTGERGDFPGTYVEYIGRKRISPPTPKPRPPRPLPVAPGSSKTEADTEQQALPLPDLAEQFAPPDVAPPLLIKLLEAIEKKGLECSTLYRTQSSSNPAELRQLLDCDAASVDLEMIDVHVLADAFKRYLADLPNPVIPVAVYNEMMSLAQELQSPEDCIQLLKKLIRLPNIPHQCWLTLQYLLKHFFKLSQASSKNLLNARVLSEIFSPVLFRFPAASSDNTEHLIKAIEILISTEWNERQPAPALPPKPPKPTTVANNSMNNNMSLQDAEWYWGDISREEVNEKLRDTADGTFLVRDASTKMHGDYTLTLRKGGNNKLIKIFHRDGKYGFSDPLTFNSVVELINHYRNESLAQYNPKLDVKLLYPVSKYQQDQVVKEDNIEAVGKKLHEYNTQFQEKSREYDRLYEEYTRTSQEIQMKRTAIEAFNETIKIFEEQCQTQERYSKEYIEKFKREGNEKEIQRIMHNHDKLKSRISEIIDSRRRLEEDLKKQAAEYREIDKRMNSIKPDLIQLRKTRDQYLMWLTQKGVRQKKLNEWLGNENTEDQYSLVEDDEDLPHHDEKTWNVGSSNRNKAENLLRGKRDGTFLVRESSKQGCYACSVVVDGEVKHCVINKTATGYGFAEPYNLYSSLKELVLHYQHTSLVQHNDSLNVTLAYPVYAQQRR

`CCCCCCCCCCCCCC(=O)O[C@@H]1[C@@H](C)[C@@]2(O)[C@@H](C=C(CO)C[C@]3(O)C(=O)C(C)=C[C@@H]23)[C@@H]2C(C)(C)[C@]12OC(C)=O` [PMA, Phorbol 12-myristate 13-acetate]: in experiment [1] (SYF cells, 100 nM PMA 15 min), the “activation of cSrc (anti-phospho-cSrc Y416 immunoreactivity) on PMA treatment” value is “evidence for activation of cSrc” and the “colocalization of GFP-AFAP-110 with cSrc on PMA treatment” value is recorded as “caused GFP-AFAP-110 to colocalize with cSrc”. Further, in experiment [1] (p85α+/+ cells), the “cSrc activation on PMA treatment” value is reported as “enables PMA to induce” and the “colocalization of AFAP-110 with cSrc on PMA treatment” value was “enables PMA to induce”. Moreover, in experiment [1] (setting [2]), the “cSrc activation on PMA treatment” value was “no evidence for cSrc activation” and the “colocalization of AFAP-110 with cSrc on PMA treatment” value is listed as “failed to induce significant colocalization”. Besides, the “PI3K activity (incorporation of 32P into phosphoinositide substrate)” value on PI3K was “significant increase”.
